In patent publication US9078929B2, “ε-Polylysine conjugates and the use thereof” (Merck Patent GmbH, priority 2009, dated 2015):

Tests used:
proteases = conditions: in contrast to α-polylysine; cited from earlier work
[1] = Comparative planar scintigraphs, mouse model; assay type: in vivo
Description: (§1) The uptake of ^99mTc-MAG3 and of ^99mTc-DMSA are compared with the uptake of (ε-L-polylysine-DOTA, loaded with ^111In) in the rat and mouse model in planar scintigraphs.

[2] = Comparative planar scintigraphs, rat model; assay type: in vivo
Description: as §1

ε-polylysine
enzymatic degradation by proteases (proteases): not enzymatically degraded

O=C(O)CNC(=O)CNC(=O)CNC(=O)CS [^99mTc-MAG3, mercaptoacetyltriglycine, metal not drawn]
kidney to background ratio compared with ε-L-polylysine-DOTA loaded with 111In [1]: worse kidney to background ratio
kidney to background ratio compared with ε-L-polylysine-DOTA loaded with 111In [2]: worse kidney to background ratio
